From the OPERA property sets (Mansouri et al. 2018)
Converted amounts (≈) assume the structure as drawn.

Settings: 25 °C

C=CC=C and C=CC(=C)C are within 1.5-fold of each other in solubility: 13600 µM (≈ 735 µg/mL) for the first, 9340 µM (≈ 636 µg/mL) for the second.

CC1CCCC1 and C1CCCCC1 are within 1.5-fold of each other in solubility: 499 µM (≈ 42 µg/mL) for the first, 654 µM (≈ 55 µg/mL) for the second.

C=C and C=CC are within 1.5-fold of each other in solubility: 4670 µM (≈ 131 µg/mL) for the first, 4750 µM (≈ 200 µg/mL) for the second.

Compared with CCCCCC, CCCC is 9.5-fold higher in solubility: 110 µM (≈ 9.5 µg/mL) for the first, 1050 µM (≈ 61.2 µg/mL) for the second.

Compared with C#CC, C=CCC is 23-fold lower in solubility: 90800 µM (≈ 3640 µg/mL) for the first, 3940 µM (≈ 221 µg/mL) for the second.

First: Cc1ccc(C)c(C)c1
Second: C1CCCCCCC1
The solubility of the first is 6.7-fold higher: 474 µM (≈ 57 µg/mL) for the first, 70.4 µM (≈ 7.9 µg/mL) for the second.
